Measurements taken from the supplement of paper PMC11061612.

Columns and labels:
AM-38 (Glioblastoma) = assay: Bliss excess, mean over the matrix (fraction); higher = more synergy
Procedure, shortened: (§1)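 Bliss excess equals the observed combination effect minus the expected value EA + EB − EA·EB, where EA and EB are the effects of each agent alone. Combination Emax is the second-highest inhibition within the matrix. Inhibition was scaled from CellTiter-Glo 2.0 luminescence, with 0 set by vehicle wells and 1 by blank wells, after 72 hours of two-drug dosing of cells plated in 1536-well plates.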

[1] = system: CL-11 (Colorectal Carcinoma); assay: as above
Procedure, shortened: as §1

[2] = system: HPAF-II (Pancreatic Carcinoma); assay: as above
Procedure, shortened: as §1

[3] = system: IA-LM (Non-Small Cell Lung Carcinoma); assay: as above
Procedure, shortened: as §1

[4] = system: KP-4 (Pancreatic Carcinoma); assay: as above
Procedure, shortened: as §1

[5] = system: MOLT-13 (T-Lymphoblastic Leukemia); assay: as above
Procedure, shortened: as §1

[6] = system: OAW-28 (Ovarian Carcinoma); assay: as above
Procedure, shortened: as §1

[7] = system: P30-OHK (B-Lymphoblastic Leukemia); assay: as above
Procedure, shortened: as §1

[8] = system: RCC-JW (Kidney Carcinoma); assay: as above
Procedure, shortened: as §1

[9] = system: SAT (Head and Neck Carcinoma); assay: as above
Procedure, shortened: as §1

[10] = system: SK-CO-1 (Colorectal Carcinoma); assay: as above
Procedure, shortened: as §1

SK-N-SH (Neuroblastoma) = assay: as above
Procedure, shortened: as §1

[11] = system: SNU-423 (Hepatocellular Carcinoma); assay: as above
Procedure, shortened: as §1

[12] = system: SiHa (Cervical Carcinoma); assay: as above
Procedure, shortened: as §1

[13] = system: HPAF-II (Pancreatic Carcinoma); assay: combination Emax (second highest fraction inhibited in the dose matrix, 72 h); higher = more inhibition; extreme values may be limits of the assay
Procedure, shortened: as §1

| SMILES | Bliss excess (AM-38 (Glioblastoma)) | Bliss excess [1] | Bliss excess [2] | Bliss excess [3] | Bliss excess [4] | Bliss excess [5] | Bliss excess [6] | Bliss excess [7] | Bliss excess [8] | Bliss excess [9] | Bliss excess [10] | Bliss excess (SK-N-SH (Neuroblastoma)) | Bliss excess [11] | Bliss excess [12] | combination Emax [13] |
| --- | --- | --- | --- | --- | --- | --- | --- | --- | --- | --- | --- | --- | --- | --- | --- |
| Cn1cnc2c(F)c(Nc3ccc(Br)cc3Cl)c(C(=O)NOCCO)cc21 [Selumetinib] + CCN(CCO)CCCOc1ccc2c(Nc3cc(CC(=O)Nc4cccc(F)c4)[nH]n3)ncnc2c1 [AZD2811] (first compound max 10 µM, 7x7, partner max 1 µM) | -0.0208 | 0.0129 | 0.0129 | -0.0353 | 0.0217 | 0.0312 | 0.0388 | -0.0123 | -0.0464 | -0.0151 | -0.0098 | -0.0557 | -0.0263 | -0.0355 | 0.682 |
| COc1cc2ncnc(Nc3ccc(F)c(Cl)c3)c2cc1OCCCN1CCOCC1 [Gefitinib] + CC(C)n1c(=O)n(C)c2cnc3cc(F)c(-c4ccc(OCCCN5CCCCC5)nc4)cc3c21 [AZD1390] (first compound max 10 µM, 7x7, partner max 0.3 µM) | -0.0811 | -0.0474 | -0.066 | -0.111 | -0.073 | -0.0246 | -0.0392 | -0.0298 | -0.069 | -0.0522 | -0.0056 | -0.0718 | -0.0902 | -0.0732 | 0.29 |
| NC1(C(=O)N[C@@H](CCO)c2ccc(Cl)cc2)CCN(c2ncnc3[nH]ccc23)CC1 [Capivasertib] + CC(=O)c1c(C)c2cnc(Nc3ccc(N4CCNCC4)cn3)nc2n(C2CCCC2)c1=O [Palbociclib] (first compound max 10 µM, 7x7, partner max 10 µM) | 0.0392 | -0.0222 | 0.0187 | -0.0789 | 0.029 | 0.0311 | -0.0162 | 0.0689 | 0.0347 | -0.0203 | -0.0319 | 0.0041 | -0.0019 | -0.022 | 0.197 |
| COc1nnc2ccc(N3CCC(c4ccc(OCCN5CCN(C)C(=O)[C@H]5C)cc4)CC3)nn12 [AZD5153] + CCN(CCO)CCCOc1ccc2c(Nc3cc(CC(=O)Nc4cccc(F)c4)[nH]n3)ncnc2c1 [AZD2811] (first compound max 1 µM, 7x7, partner max 1 µM) | 0.039 | -0.0529 | 0.0072 | -0.103 | -0.0849 | -0.008 | -0.0115 | -0.0428 | -0.0416 | -0.0368 | -0.0746 | -0.0658 | -0.0417 | 0.0047 | 0.379 |
| COc1nnc2ccc(N3CCC(c4ccc(OCCN5CCN(C)C(=O)[C@H]5C)cc4)CC3)nn12 [AZD5153] + C=CCn1c(=O)c2cnc(Nc3ccc(N4CCN(C)CC4)cc3)nc2n1-c1cccc(C(C)(C)O)n1 [AZD1775] (first compound max 1 µM, partner max 1 µM) | -0.0594 | -0.0376 | -0.0147 | -0.0554 | -0.0859 | -0.0319 | -0.0382 | 0.0298 | -0.022 | -0.0305 | -0.0741 | -0.0602 | -0.0459 | -0.0583 | 0.449 |
| NC1(C(=O)N[C@@H](CCO)c2ccc(Cl)cc2)CCN(c2ncnc3[nH]ccc23)CC1 [Capivasertib] + COc1nnc2ccc(N3CCC(c4ccc(OCCN5CCN(C)C(=O)[C@H]5C)cc4)CC3)nn12 [AZD5153] (first compound max 10 µM, 7x7, partner max 1 µM) | 0.0039 | -0.0206 | 0.0188 | -0.141 | -0.0109 | -0.0111 | 0.0387 | 0.0358 | 0.0516 | -0.0508 | -0.0209 | 0.0362 | 0.0056 | 0.006 | 0.389 |
| COc1nnc2ccc(N3CCC(c4ccc(OCCN5CCN(C)C(=O)[C@H]5C)cc4)CC3)nn12 [AZD5153] + CC1(C)CCC(CN2CCN(c3ccc(C(=O)NS(=O)(=O)c4ccc(NCC5CCOCC5)c([N+](=O)[O-])c4)c(Oc4cnc5[nH]ccc5c4)c3)CC2)=C(c2ccc(Cl)cc2)C1 [Venetoclax] (first compound max 1 µM, 7x7, partner max 1 µM) | -0.135 | -0.0302 | -0.0057 | -0.0639 | -0.0465 | 0.11 | -0.0949 | 0.102 | -0.0551 | -0.0525 | -0.0312 | 0.0011 | -0.0223 | -0.0986 | 0.365 |
| Cn1cnc2c(F)c(Nc3ccc(Br)cc3Cl)c(C(=O)NOCCO)cc21 [Selumetinib] + CC(C)n1c(=O)n(C)c2cnc3cc(F)c(-c4ccc(OCCCN5CCCCC5)nc4)cc3c21 [AZD1390] (first compound max 10 µM, 7x7, partner max 0.3 µM) | -0.0389 | 0.0011 | 0.0088 | -0.0102 | -0.0571 | 0.0447 | 0.0193 | -0.0043 | -0.051 | 0.0022 | -0.0168 | -0.0624 | -0.0026 | -0.018 | 0.64 |
| CS(=O)(=O)CCNCc1ccc(-c2ccc3ncnc(Nc4ccc(OCc5cccc(F)c5)c(Cl)c4)c3c2)o1 [Lapatinib] + C[C@@H](Oc1cc(-c2cnn(C3CCNCC3)c2)cnc1N)c1c(Cl)ccc(F)c1Cl [Crizotinib] (first compound max 10 µM, 7x7, partner max 10 µM) | -0.0295 | -0.0477 | 0.0211 | -0.0133 | -0.0775 | 0.0036 | -0.0177 | 0.0323 | -0.0455 | -0.0358 | -0.0721 | -0.0618 | -0.074 | -0.0394 | 0.614 |
| COc1nnc2ccc(N3CCC(c4ccc(OCCN5CCN(C)C(=O)[C@H]5C)cc4)CC3)nn12 [AZD5153] + C[C@@H]1COCCN1C2=NC(=NC(=C2)C3(CC3)[S@](=N)(=O)C)C4=C5C=CNC5=NC=C4 [AZD6738] (first compound max 1 µM, 7x7, partner max 10 µM) | 0.0447 | -0.0383 | 0.0002 | -0.0353 | -0.0217 | 0.02 | 0.11 | -0.0012 | 0.0051 | 0.031 | -0.0179 | -0.0611 | -0.0023 | 0.101 | 0.512 |
| Cn1cnc2c(F)c(Nc3ccc(Br)cc3Cl)c(C(=O)NOCCO)cc21 [Selumetinib] + C[C@@H]1COCCN1C2=NC(=NC(=C2)C3(CC3)[S@](=N)(=O)C)C4=C5C=CNC5=NC=C4 [AZD6738] (first compound max 10 µM, 7x7, partner max 10 µM) | 0.104 | 0.0244 | 0.0119 | 0.0061 | -0.0712 | 0.106 | 0.046 | 0.012 | -0.0393 | 0.0782 | -0.112 | -0.0719 | -0.0238 | 0.0006 | 0.768 |
| C[C@@H](c1ccc2nccn2c1)n1nnc2ncc(-c3cnn(C)c3)nc21 [Savolitinib] + Cc1c2c(nn1C)CSCc1cc(n(C)n1)CSc1cc(c3ccccc3c1)OCCCc1c(C(=O)O)n(C)c3c-2c(Cl)ccc13 [AZD5991] (first compound max 1 µM, 7x7, partner max 1 µM) | -0.0194 | -0.0402 | -0.0163 | 0.0086 | -0.0204 | -0.0368 | -0.0129 | 0.0046 | -0.0354 | -0.0558 | -0.037 | -0.0501 | -0.0364 | -0.0335 | 0.125 |
| NC1(C(=O)N[C@@H](CCO)c2ccc(Cl)cc2)CCN(c2ncnc3[nH]ccc23)CC1 [Capivasertib] + Cn1cnc2c(F)c(Nc3ccc(Br)cc3Cl)c(C(=O)NOCCO)cc21 [Selumetinib] (first compound max 10 µM, 7x7, partner max 10 µM) | 0.0564 | -0.0202 | 0.0623 | -0.113 | 0.0084 | 0.0339 | -0.0034 | 0.0142 | 0.0296 | 0.0768 | 0.0107 | -0.0223 | 0.0248 | -0.0081 | 0.75 |
| CN(C)CCCOc1ccc(-c2ccc3ncc4c(c3c2)n(C2CCOCC2)c(=O)n4C)cn1 [AZD0156] + O=C(c1cc(Cc2n[nH]c(=O)c3ccccc23)ccc1F)N1CCN(C(=O)C2CC2)CC1 [Olaparib] (first compound max 3 µM, partner max 3 µM) | 0.167 | 0.0647 | -0.0048 | 0.0017 | 0.0711 | 0.139 | 0.0871 | 0.262 | 0.0299 | -0.0346 | -0.0173 | -0.0043 | 0.0634 | -0.0248 | 0.25 |
| NC1(C(=O)N[C@@H](CCO)c2ccc(Cl)cc2)CCN(c2ncnc3[nH]ccc23)CC1 [Capivasertib] + CCN(CCO)CCCOc1ccc2c(Nc3cc(CC(=O)Nc4cccc(F)c4)[nH]n3)ncnc2c1 [AZD2811] (first compound max 10 µM, 7x7, partner max 1 µM) | 0.0122 | -0.0034 | 0.0052 | -0.0113 | -0.0379 | -0.0569 | 0.0262 | -0.044 | -0.0014 | -0.0307 | -0.0431 | -0.0455 | -0.0676 | 0.0067 | 0.218 |
| CC(=O)c1c(C)c2cnc(Nc3ccc(N4CCNCC4)cn3)nc2n(C2CCCC2)c1=O [Palbociclib] + CN(CC[C@H](CSC1=CC=CC=C1)NC2=C(C=C(C=C2)S(=O)(=O)NC(=O)C3=CC=C(C=C3)N4CCC(CC4)[C@H](C5=CC=CC=C5C6=CC=C(C=C6)Cl)O)S(=O)(=O)C(F)(F)F)CCO [AZD4320] (first compound max 10 µM, 7x7, partner max 1 µM) | -0.0234 | 0.0021 |  |  |  | -0.0216 | -0.004 | 0.0564 |  | -0.0941 |  |  |  | -0.044 |  |
| COc1nnc2ccc(N3CCC(c4ccc(OCCN5CCN(C)C(=O)[C@H]5C)cc4)CC3)nn12 [AZD5153] + CN(CC[C@H](CSC1=CC=CC=C1)NC2=C(C=C(C=C2)S(=O)(=O)NC(=O)C3=CC=C(C=C3)N4CCC(CC4)[C@H](C5=CC=CC=C5C6=CC=C(C=C6)Cl)O)S(=O)(=O)C(F)(F)F)CCO [AZD4320] (first compound max 1 µM, 7x7, partner max 1 µM) | 0.103 | 0.0136 |  |  |  | 0.0376 | 0.0297 | -0.0062 |  | 0.0464 |  |  |  | 0.0846 |  |
| C[C@@H](c1ccc2nccn2c1)n1nnc2ncc(-c3cnn(C)c3)nc21 [Savolitinib] + CN(CC[C@H](CSC1=CC=CC=C1)NC2=C(C=C(C=C2)S(=O)(=O)NC(=O)C3=CC=C(C=C3)N4CCC(CC4)[C@H](C5=CC=CC=C5C6=CC=C(C=C6)Cl)O)S(=O)(=O)C(F)(F)F)CCO [AZD4320] (first compound max 1 µM, 7x7, partner max 1 µM) | -0.0474 | -0.0216 |  |  |  | -0.0166 | -0.006 | -0.0183 |  | -0.0345 |  |  |  | -0.0396 |  |
